Like-named read-outs stand apart in the source and are kept apart here. Marks after values point to notes of the source that are not given here.
Key:
[1] = Plasma ranolazine pharmacokinetics before, during and after posaconazole in normal-weight and obese subjects; assay type: in vivo; details: human, oral, 500 mg, Day 1, obese subjects, ranolazine 500 mg ER
[2] = as above; assay type: in vivo, human; details: for Time the interaction persisted above an AUC GMR of 1.5: after cessation of posaconazole administration; for Time the interaction persisted above a Cmax GMR of 1.5: after cessation of posaconazole
Protocol: Procedures. […] On study day 2, subjects received posaconazole (300 mg delayed-release tablet twice a day), and on the mornings of days 3-15, subjects received posaconazole (300 mg delayed-release tablet daily). Because posaconazole is to be taken with food,^6 subjects were fed a continental breakfast in the clinical research unit after receiving posaconazole and before discharge from the unit. […] Samples were centrifuged, and the plasma was separated and frozen at −70° C. until the time of assay of plasma posaconazole concentrations. […] Plasma samples were extracted by methyl tertiary butyl ether, centrifuged, and the upper layer was transferred to plastic injection vials with MeOH/water (50:50). An aliquot of the sample was then injected onto a high-pressure liquid chromatography with tandem mass spectrometry triple quadrupole mass spectrometer (Sciex API-5500). The analytical column was a Unison CK-218, 3 μm particle size HPLC column (50×2 mm) from Imtakt USA (Portland, OR). […] Pharmacokinetic and Statistical Methods. […] This was used to calculate the half-life (t1/2). The area under the plasma concentration curve from time 0 until the last nonzero point was determined by the linear trapezoidal method. To this was added the residual area, calculated as the final nonzero concentration divided by β, yielding the total area under the plasma concentration curve extrapolated to infinity (AUC). Also tabulated was the observed maximum plasma concentration (Cmax). Variables were aggregated as arithmetic mean and SD.

[3] = human, plasma, oral, 500 mg, Day 1 (before posaconazole), normal-weight subjects, ranolazine 500 mg ER, mean ± SD
[4] = human, plasma, oral, 500 mg, Day 1 (before posaconazole), obese subjects, ranolazine 500 mg ER, mean ± SD
[5] = human, plasma, oral, 500 mg, Day 18 (3 days after last posaconazole dose), normal-weight subjects, ranolazine 500 mg ER, mean ± SD
[6] = human, plasma, oral, 500 mg, Day 18 (3 days after last posaconazole dose), obese subjects, ranolazine 500 mg ER, mean ± SD
[7] = human, plasma, oral, 500 mg, Day 22 (7 days after last posaconazole dose), normal-weight subjects, ranolazine 500 mg ER, mean ± SD
[8] = human, plasma, oral, 500 mg, Day 22 (7 days after last posaconazole dose), obese subjects, ranolazine 500 mg ER, mean ± SD
[9] = human, plasma, oral, 500 mg, Day 25 (10 days after last posaconazole dose), normal-weight subjects, ranolazine 500 mg ER, mean ± SD
[10] = human, plasma, oral, 500 mg, Day 25 (10 days after last posaconazole dose), obese subjects, ranolazine 500 mg ER, mean ± SD
[11] = human, plasma, oral, 500 mg, Day 29 (14 days after last posaconazole dose), normal-weight subjects, ranolazine 500 mg ER, mean ± SD
[12] = human, plasma, oral, 500 mg, Day 29 (14 days after last posaconazole dose), obese subjects, ranolazine 500 mg ER, mean ± SD
[13] = human, plasma, oral, Day 15 (last day of posaconazole 300 mg daily), normal-weight subjects, ranolazine 500 mg ER, mean ± SD
[14] = human, plasma, oral, Day 15 (last day of posaconazole 300 mg daily), obese subjects, ranolazine 500 mg ER, mean ± SD

COc1ccccc1OCC(O)CN1CCN(CC(=O)Nc2c(C)cccc2C)CC1 (stereo not shown) [ranolazine]
Cmax ([1]; read-out: Geometric mean Cmax): 559 ± 271 ng/mL
AUC ([1]; Geometric mean AUC for ranolazine): 6960 ng·h/mL
T1/2 ([2]; Day 1 (before posaconazole), normal-weight subjects, ranolazine 500 mg ER, mean ± SD): 4.98 ± 1.50^a h
Time the interaction persisted above an AUC GMR of 1.5 ([2]; normal-weight subjects): at least 7 days
Time the interaction persisted above an AUC GMR of 1.5 ([2]; obese subjects): ≥ 10 days
Time the interaction persisted above a Cmax GMR of 1.5 ([2]; normal-weight subjects): 7 days
Time the interaction persisted above a Cmax GMR of 1.5 ([2]; obese subjects): 10 days
Time the lower bound of the AUC GMR 90% CI remained above 1.0 ([2]; both normal-weight and obese subjects): 7 days
AUC(0-inf) [2, 3]: 7080 ± 3600 ng·h/mL
half-life [2, 3]: 4.99 ± 1.5 h
Cmax ([2]; human, plasma, oral, 500 mg, Day 1 (before posaconazole), normal-weight subjects, ranolazine 500 mg extended-release tablet, mean ± SD, read-out: Cmax): 665 ± 318 ng/mL
AUC(0-inf) [2, 4]: 8130 ± 4840 ng·h/mL
half-life [2, 4]: 6.02 ± 1.75 h
Cmax ([2]; human, plasma, oral, 500 mg, Day 1 (before posaconazole), obese subjects, ranolazine 500 mg extended-release tablet, mean ± SD, read-out: Cmax): 559 ± 271 ng/mL
Cmax ([2]; human, plasma, oral, 500 mg, Day 1, normal-weight subjects, ranolazine 500 mg ER, read-out: Geometric mean Cmax): 665 ± 318 ng/mL
AUC(0-inf) [2, 5]: 17300 ± 10300 ng·h/mL
half-life [2, 5]: 5.73 ± 1.53 h
Cmax ([2]; human, plasma, oral, 500 mg, Day 18 (3 days after last posaconazole dose), normal-weight subjects, ranolazine 500 mg ER, mean ± SD, read-out: Cmax): 1190 ± 469 ng/mL
AUC(0-inf) [2, 6]: 19300 ± 14200 ng·h/mL
half-life [2, 6]: 7.93 ± 2.98 h
Cmax ([2]; human, plasma, oral, 500 mg, Day 18 (3 days after last posaconazole dose), obese subjects, ranolazine 500 mg ER, mean ± SD, read-out: Cmax): 1100 ± 502 ng/mL
AUC(0-inf) [2, 7]: 13400 ± 6250 ng·h/mL
half-life [2, 7]: 6.47 ± 3.14 h
Cmax ([2]; human, plasma, oral, 500 mg, Day 22 (7 days after last posaconazole dose), normal-weight subjects, ranolazine 500 mg ER, mean ± SD, read-out: Cmax): 974 ± 400 ng/mL
AUC(0-inf) [2, 8]: 15900 ± 11800 ng·h/mL
half-life [2, 8]: 6.09 ± 2.1 h
Cmax ([2]; human, plasma, oral, 500 mg, Day 22 (7 days after last posaconazole dose), obese subjects, ranolazine 500 mg ER, mean ± SD, read-out: Cmax): 1060 ± 508 ng/mL
AUC(0-inf) [2, 9]: 9380 ± 4590 ng·h/mL
half-life [2, 9]: 5.05 ± 1.82 h
Cmax ([2]; human, plasma, oral, 500 mg, Day 25 (10 days after last posaconazole dose), normal-weight subjects, ranolazine 500 mg ER, mean ± SD, read-out: Cmax): 928 ± 482 ng/mL
AUC(0-inf) [2, 10]: 13800 ± 10600 ng·h/mL
half-life [2, 10]: 6.07 ± 2.1 h
Cmax ([2]; human, plasma, oral, 500 mg, Day 25 (10 days after last posaconazole dose), obese subjects, ranolazine 500 mg ER, mean ± SD, read-out: Cmax): 976 ± 487 ng/mL
AUC(0-inf) [2, 11]: 8570 ± 3800 ng·h/mL
half-life [2, 11]: 4.45 ± 1.38 h
Cmax ([2]; human, plasma, oral, 500 mg, Day 29 (14 days after last posaconazole dose), normal-weight subjects, ranolazine 500 mg ER, mean ± SD, read-out: Cmax): 751 ± 276 ng/mL
AUC(0-inf) [2, 12]: 10200 ± 7940 ng·h/mL
half-life [2, 12]: 6.38 ± 3.05 h
Cmax ([2]; human, plasma, oral, 500 mg, Day 29 (14 days after last posaconazole dose), obese subjects, ranolazine 500 mg ER, mean ± SD, read-out: Cmax): 719 ± 333 ng/mL
AUC ([2]; human, plasma, oral, 500 mg, Geometric mean AUC for ranolazine, Day 1, normal-weight subjects, ranolazine 500 mg ER): 6450 ng·h/mL
AUC(0-inf) [2, 13]: 27500 ± 14900 ng·h/mL
half-life [2, 13]: 9.54 ± 4.3 h
Cmax ([2]; human, plasma, oral, Day 15 (last day of posaconazole 300 mg daily), normal-weight subjects, ranolazine 500 mg ER, mean ± SD, read-out: Cmax): 1430 ± 666 ng/mL
AUC(0-inf) [2, 14]: 25800 ± 21600 ng·h/mL
half-life [2, 14]: 8.78 ± 5.58 h
Cmax ([2]; human, plasma, oral, Day 15 (last day of posaconazole 300 mg daily), obese subjects, ranolazine 500 mg ER, mean ± SD, read-out: Cmax): 1180 ± 512 ng/mL

From patent US20230414607A1, “METHODS OF TREATMENT” (BOW RIVER LLC, priority 2017, published 2023)
